Columns and labels:
[1] = molecular target: T1, cathepsin K (mature, mCatK) (Homo sapiens, UniProt P43235); assay: crystal structure […] Å (also with iCatK, 7QBO); Ki by slow-binding fluorogenic enzyme assay; format: biochemical; settings: read-out: mCatK inhibition^a / Ki
T1 construct: gene CTSK; mature CatK, model residues Ala1 to Met215 plus N-terminal Gly-Arg (98p–99p) (from recombinant zymogen expressed in Pichia pastoris)
T1 sequence (P43235 113-329): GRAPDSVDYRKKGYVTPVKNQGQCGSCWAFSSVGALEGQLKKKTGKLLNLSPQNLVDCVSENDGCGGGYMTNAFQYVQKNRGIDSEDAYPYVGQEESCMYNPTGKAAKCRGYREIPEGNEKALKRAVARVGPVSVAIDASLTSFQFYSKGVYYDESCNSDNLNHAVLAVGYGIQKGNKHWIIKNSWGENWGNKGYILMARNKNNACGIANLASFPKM

[2] = molecular target: T2, cathepsin K (mature, mCatK) (Homo sapiens, UniProt P43235); assay: crystal structure […] Å (also with iCatK, 7QBM); Ki by fluorogenic enzyme assay (Morrison); format: biochemical; settings: read-out: mCatK inhibition^a / Ki
T2 construct: gene CTSK; mature CatK, model residues Ala1 to Met215 (from recombinant zymogen expressed in Pichia pastoris)
T2 sequence (P43235 115-329): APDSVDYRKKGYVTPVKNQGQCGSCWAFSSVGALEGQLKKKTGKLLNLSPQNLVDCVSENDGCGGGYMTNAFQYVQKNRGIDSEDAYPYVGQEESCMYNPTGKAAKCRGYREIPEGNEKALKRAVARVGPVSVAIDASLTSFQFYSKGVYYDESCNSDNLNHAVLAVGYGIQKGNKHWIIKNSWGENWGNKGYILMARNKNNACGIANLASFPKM

Row | Compound | Ki [1] | Ki [2]
1 | CN(C#N)N(C)C(=O)[C@H](Cc1ccccc1)NC(=O)OCc1ccccc1 [Gü1303] | 0.91 nM | 
2 | CN(Cc1ccccc1)C(=O)CN(C#N)NC(=O)OC(C)(C)C [Gü2602] |  | 0.013 nM

— article PMC8843313, “Highly potent inhibitors of cathepsin K with a differently positioned cyanohydrazide warhead: structural analysis of binding mode to mature and zymogen-like enzymes” (Journal of Enzyme Inhibition and Medicinal Chemistry, 2022)
